Test results: patent US5843916A, “Cyclic amp analogues, individually and in pairs, to inhibit neoplastic cell growth” (priority 1994, dated 1998)
Like-named read-outs stand apart in the source and are kept apart here. Each block holds one molecule with its values, some of them ahead of it.

Key:
[1] = tested on: breast (MCF-7) and colon (LS-174T) cancer cell lines; experiment: Growth inhibition of breast and colon cancer cells (Table 1); format: cell-based, human; details: for inhibition at 50 µM: Homo sapiens
Protocol: The compounds of the present invention were added using 100X concentrated stock solutions. At desired times, cell counts in duplicate were performed on a Coulter counter after harvesting the cells with gentle trypsinization. […] Cell counts were performed on each of three or more separate experiments, and the average values are expressed as percent growth inhibition as compared with untreated control cells. | ^a The values of percentage growth inhibition were determined from th | doseresponse curve experiments. Each value represents an average value an | range (in parentheses) obtained from three or more separate experiments. | The cell counts in duplicate were performed at day 3 and day 4 after two | treatments (day 0 and day 2) with analogs (seeding on day -1).

[2] = tested on: HL-60 human leukemia cells; experiment: Growth inhibition of HL-60 leukemia cells (Example 3, Table 16); format: cell-based
Protocol: HL-60 leukemic cells were obtained from the American Type Culture Collection (Rockville, Md.) and were grown in suspension culture in RPMI 1640 supplemented with 10% heat-inactivated fetal bovine serum, streptomycin (500 μg/ml), penicillin (50 units/ml), and glutamine (1 mM) (Gibco, Grand Island, N.Y.).
Cell counts were performed at desired times on a Coulter Counter.
The IC50 values were determined from the dose-
represent an average value obtained for each analogue
from two or more separate experiments carried out from 3
days or 6 days. Initial cell number, 1 × 10^5 /dish.
Typical numbers of untreated control cells at day 3 and
viability in treated and control cells.

[3] = tested on: LS-174T human colon carcinoma cells; experiment: Growth inhibition of LS-174T cells (Example 4, Table 18); format: cell-based; details: for inhibition at 10 µM / inhibition at 50 µM: Homo sapiens, LS174T; for growth inhibitory potency: LS-174T
Protocol: LS-174T human colon carcinoma cells were obtained from the National Cancer Institute, Division of Cancer Treatment, Bethesda, Md., and were grown in Eagle's minimum essential medium supplemented with 10% heat-inactivated fetal bovine serum, Eagle's minimum essential medium nonessential amino acids, 20 mM 4-(2-hydroxyethyl)-1-piperazineethanesulfonic acid, 2mM glutamine, and penicillin-streptomycin (Gibco). The medium was changed every 48 hours.
LS-174T cells were seeded at a density of 2×10^5 / 60 mm dish. […] At desired times, cell counts were performed in duplicate on a Coulter Counter after harvesting cells with gentle trypsinization.
The percentage growth inhibition values shown at 10
and 50 μM analogue concentrations were determined from
the dose-response curve experiments like those shown in
FIG. 1 and represent an average value obtained for each
analogue from two or more separate experiments. Sp-6-SET-

[4] = tested on: LS-174T human colon carcinoma cells; experiment: Additive growth inhibition with 8-Cl-cAMP (Table 19); format: cell-based
Protocol: The medium was changed every 48 hours.
At desired times, cell counts were performed in duplicate on a Coulter Counter after harvesting cells with gentle trypsinization.
The analogues were added at 24

[5] = target: T1, RI, regulatory subunit of cAMP-dependent protein kinase type I (Oryctolagus cuniculus, UniProt G1TDN4); details: literature, cited from earlier work; for relative affinity Ki (cAMP)/Ki (analogue), RI Site A: Site A (Site 2); for relative affinity Ki (cAMP)/Ki (analogue), RI Site B: Site B (Site 1)
T1 construct: from tissue
T1 sequence (G1TDN4 1-381): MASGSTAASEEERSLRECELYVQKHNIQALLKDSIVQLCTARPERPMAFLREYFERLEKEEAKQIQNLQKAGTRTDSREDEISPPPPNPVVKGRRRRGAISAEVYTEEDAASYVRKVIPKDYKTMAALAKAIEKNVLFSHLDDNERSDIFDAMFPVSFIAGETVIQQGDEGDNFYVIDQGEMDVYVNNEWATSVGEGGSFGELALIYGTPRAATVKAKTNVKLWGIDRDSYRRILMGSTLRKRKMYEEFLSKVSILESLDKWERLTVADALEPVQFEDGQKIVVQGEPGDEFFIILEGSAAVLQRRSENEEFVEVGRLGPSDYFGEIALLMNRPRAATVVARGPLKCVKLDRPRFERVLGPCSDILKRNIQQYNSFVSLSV

[6] = target: T2, RII, regulatory subunit of cAMP-dependent protein kinase type II (Bos taurus, UniProt P00515); experiment: Binding affinity for RII (Table 14); details: vs cyclophosphate
T2 construct: from tissue
T2 sequence (P00515 whole entry): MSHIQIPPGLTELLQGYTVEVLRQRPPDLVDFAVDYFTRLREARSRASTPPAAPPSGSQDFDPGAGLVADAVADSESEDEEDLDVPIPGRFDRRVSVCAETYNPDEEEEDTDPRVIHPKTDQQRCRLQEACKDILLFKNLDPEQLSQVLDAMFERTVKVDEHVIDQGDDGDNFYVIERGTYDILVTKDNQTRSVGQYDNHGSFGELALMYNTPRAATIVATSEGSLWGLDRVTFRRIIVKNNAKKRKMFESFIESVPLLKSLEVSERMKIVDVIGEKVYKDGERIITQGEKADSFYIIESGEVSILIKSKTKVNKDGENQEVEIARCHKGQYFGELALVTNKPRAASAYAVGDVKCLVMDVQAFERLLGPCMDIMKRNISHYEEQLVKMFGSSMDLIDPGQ
Protocol: (§1) RI and RII are the regulatory subunits of cAMP-dependent protein
(§2) kinase type I and type II, respectively. Site A (Site 2) and Site B
(§3) (RI and RII): the affinities of analogues for Site A and Site B were
(§4) determined by the measurement of kinetic constants (inhibition constant,
(§5) Ki), and the values are expressed as the relative affinity Ki
(§6) (analogue), i.e., the ratio between the apparent inhibition constant for
(§7) cAMP and the analogue, as described in Ogreid et al., Eur. J. Biochem.

[7] = target: T2, RII, regulatory subunit of cAMP-dependent protein kinase type II; details: literature, cited from earlier work; for relative affinity Ki (cAMP)/Ki (analogue), RII Site A: Site A (Site 2); for relative affinity Ki (cAMP)/Ki (analogue), RII Site B: Site B (Site 1)
[8] = target: T1, RI, regulatory subunit of cAMP-dependent protein kinase type I; experiment: Binding affinity for RI (Table 14); details: vs cyclophosphate
Protocol: as §1, §2, §3, §4, §5, §6, §7

[9] = tested on: breast and colon cancer lines (MCF-7, T-47D, ZR-75-1, MCF-7ras, MDA-MB-231, BT-20, HBL-100, LS-174T, WiDr, HT-29); experiment: Growth inhibition of breast and colon cancer lines (FIG. 1); format: cell-based, human; details: 0.1 mM, alone
[10] = tested on: four leukemic cell lines (HL-60, K-562, myc-K562, Molt-4); experiment: Growth inhibition of leukemic cell lines; format: cell-based, human
[11] = tested on: Molt-4; experiment: Growth inhibition of leukemic cells (Table 12); format: cell-based, human; details: Homo sapiens, MOLT-4; read-out: Inhibition of Growth IC50, Molt-4
[12] = tested on: HL-60; experiment: Growth inhibition of leukemic cells (Table 12); format: cell-based; details: Homo sapiens
[13] = tested on: K-562; experiment: Growth inhibition of leukemic cells (Table 12); format: cell-based; details: Homo sapiens, K562
[14] = tested on: myc-K562; experiment: Growth inhibition of leukemic cells (Table 12); format: cell-based; details: Homo sapiens
[15] = 72 h, 50 μM, day 3, average (range), read-out: % Growth Inhibition, Day 3
[16] = 96 h, 50 μM, day 4, average (range), read-out: % Growth Inhibition, Day 4
[17] = Homo sapiens, HL-60, read-out: growth inhibition
[18] = 50 micromolar, read-out: growth inhibition

Structure (SMILES): Nc1ncnc2c1nc(Sc1ccc(Cl)cc1)n2[C@@H]1O[C@@H]2COP(=O)(O)O[C@H]2[C@H]1O [8-p-chlorophenylthio-cAMP]
- inhibition at 50 µM [1, 15]: 23%
- inhibition at 50 µM [1, 16]: 24%

Structure (SMILES): O=P1(O)OC[C@H]2O[C@@H](n3c(SCc4ccccc4)nc4c(NCc5ccccc5)ncnc43)[C@H](O)[C@@H]2O1 [N^6-benzyl-8-benzylthio-cAMP]
- inhibition at 50 µM [1, 15]: 25%
- inhibition at 50 µM [1, 16]: 23%

Structure (SMILES): Nc1ncnc2c1nc(I)n2[C@@H]1O[C@@H]2COP(=O)(O)O[C@H]2[C@H]1O [8-iodo-cAMP]
- inhibition at 50 µM [1, 15]: 26%
- inhibition at 50 µM [1, 16]: 25%

Structure (SMILES): Nc1ncnc2c1ncn2[C@@H]1O[C@@H]2CO[P@](O)(=S)O[C@H]2[C@H]1O [Sp-cAMPS]
- inhibition at 20 µM [2, 17]: < 5%
- inhibition at 10 µM [3]: 7%
- inhibition at 50 µM [3]: 15%
- growth inhibitory potency [3]: least potency

Structure (SMILES): CN(C)c1nc2c(N)ncnc2n1[C@@H]1O[C@@H]2COP(=O)(O)O[C@H]2[C@H]1O [8-N,N-dimethylamino-cAMP]
- inhibition at 50 µM [1, 15]: 0%
- inhibition at 50 µM [1, 16]: 0%
- inhibition at 50 µM [1, 18]: ≤ 20%

Structure (SMILES): O=C(Nc1ccccc1)Nc1ncnc2c1ncn2[C@@H]1O[C@@H]2COP(=O)(O)O[C@H]2[C@H]1O [N^6 -phenylcarbamoyl-cAMP]
- inhibition at 50 µM [1, 15]: 10%
- inhibition at 50 µM [1, 16]: 10%

Structure (SMILES): Nc1ncnc2c1nc(NCCO)n2[C@@H]1O[C@@H]2COP(=O)(O)O[C@H]2[C@H]1O [8-β-hydroxyethylamino-cAMP]
- inhibition at 50 µM [1, 15]: 15%
- inhibition at 50 µM [1, 16]: 20%
- inhibition at 50 µM [1, 18]: ≤ 20%

Structure (SMILES): CCCCNc1ncnc2c1nc(Sc1ccc(Cl)cc1)n2[C@@H]1O[C@@H]2COP(=O)(O)O[C@H]2[C@H]1O [N^6-n-butyl-8-p-chlorophenylthio-cAMP]
- inhibition at 50 µM [1, 15]: 15%
- inhibition at 50 µM [1, 16]: 22%

Structure (SMILES): O=P1(O)OC[C@H]2O[C@@H](n3c(Sc4ccc(Cl)cc4)nc4c(Nc5ccccc5)ncnc43)[C@H](O)[C@@H]2O1 [N^6-phenyl-8-p-chlorophenylthio-cAMP]
- growth inhibition ([1]; 50 micromolar): most potent growth inhibition among the C-6,-8 disubstituted analogues
- inhibition at 50 µM [1, 15]: 60%
- inhibition at 50 µM [1, 16]: 47%

Structure (SMILES): Nc1ncnc2c1ncn2[C@@H]1O[C@@H]2CO[P@@](O)(=S)O[C@H]2[C@H]1O [Rp-cAMPS]
- inhibition at 20 µM [2, 17]: < 5%
- inhibition at 50 µM ([4]; Homo sapiens, LS174T, 96 h, 50 μM, 4 days): 35%
- effect on growth-inhibitory effect of 8-Cl-cAMP ([4]; with 8-Cl-cAMP): additive effect
- inhibition at 10 µM [3]: 15%
- inhibition at 50 µM [3]: 35%
- growth inhibitory potency [3]: moderate potency

Structure (SMILES): CCN(CC)c1ncnc2c1nc(Sc1ccc(Cl)cc1)n2[C@@H]1O[C@@H]2COP(=O)(O)O[C@H]2[C@H]1O [N^6,N ^6-diethyl-8-p-chlorophenylthio-cAMP]
- inhibition at 50 µM [1, 15]: 43%
- inhibition at 50 µM [1, 16]: 45%

Structure (SMILES): CCSc1ncnc2c1ncn2[C@@H]1O[C@@H]2CO[P@](O)(=S)O[C@H]2[C@H]1O [Sp-6-SET-cPMPS, Sp-6-ethylthiopurine-3':5'-monophosphorothioate]
- inhibition at 10 µM [3]: 25%
- inhibition at 50 µM [3]: 50%
- growth inhibitory potency [3]: moderate potency

Structure (SMILES): Nc1nc(Cl)nc2c1ncn2[C@@H]1O[C@@H]2CO[P@](O)(=S)O[C@H]2[C@H]1O [Sp-2-Cl-cAMPS, Sp-2-Chloroadenosine-3':5'-monophosphorothioate]
- inhibition at 10 µM [3]: 10%
- inhibition at 50 µM [3]: 25%
- growth inhibitory potency [3]: least potency

Structure (SMILES): O=P1(O)OC[C@H]2O[C@@H](n3c(Sc4ccc(Cl)cc4)nc4c(N5CCCCC5)ncnc43)[C@H](O)[C@@H]2O1 [6-piperidino-8-p-chlorophenylthio-cAMP]
- inhibition at 50 µM [1, 15]: 33%
- inhibition at 50 µM [1, 16]: 25%

Structure (SMILES): Nc1ncnc2c1nc(Br)n2[C@@H]1O[C@@H]2CO[P@](O)(=S)O[C@H]2[C@H]1O [Sp-8-Br-cAMPS]
- IC50 ([2]; Homo sapiens, HL-60, 72 h, read-out: Growth inhibition (IC50), Day 3): 28 µM
- IC50 ([2]; Homo sapiens, HL-60, 144 h, read-out: Growth inhibition (IC50), Day 6): 3 µM
- inhibition at 20 µM [2, 17]: 47%
- fold more potent than 8-Br-cAMP ([2]; IC50, day 6): 6 fold
- relative affinity Ki (cAMP)/Ki (analogue), RI Site A [5]: 0.19
- relative affinity Ki (cAMP)/Ki (analogue), RI Site B [5]: 0.054
- decrease in affinity for Site A of RII vs corresponding cyclophosphate [6]: 37 fold
- decrease in affinity for Site B of RII vs corresponding cyclophosphate [6]: 3.1 fold
- relative affinity Ki (cAMP)/Ki (analogue), RII Site A [7]: 0.003
- relative affinity Ki (cAMP)/Ki (analogue), RII Site B [7]: 2.2
- inhibition at 10 µM [3]: 40%
- inhibition at 50 µM [3]: 60%
- growth inhibitory potency [3]: greatest inhibition of cell growth
- decrease in affinity for Site A of RI vs corresponding cyclophosphate [8]: 7 fold
- decrease in affinity for Site B of RI vs corresponding cyclophosphate [8]: 19 fold

Structure (SMILES): Cn1c(=O)c2[nH]cnc2n(C)c1=O [theophylline, reference compound]
- growth inhibitory effect [9]: little or no growth inhibitory effect
- growth inhibitory effect ([10]; 0.1 mM, alone): little or no growth inhibitory effect

- IC50 [11]: 100 µM
- IC50 ([2]; Homo sapiens, HL-60, 72 h; read-out: Growth inhibition (IC50), Day 3): 100 µM
- IC50 ([2]; Homo sapiens, HL-60, 144 h; read-out: Growth inhibition (IC50), Day 6): 18 µM
- IC50 [12]: 50 µM
- IC50 [13]: 100 µM
- IC50 [14]: 100 µM
Structure (SMILES): Nc1ncnc2c1nc(Br)n2[C@@H]1O[C@@H]2COP(=O)(O)O[C@H]2[C@H]1O [8-Br-cAMP, 8-bromo-adenosine 3': 5'-monophosphate]
- inhibition at 20 µM ([2]; Homo sapiens, HL-60; 20 μM; read-out: growth inhibition): < 5%
- inhibition at 50 µM [1, 15]: 41%
- inhibition at 50 µM [1, 16]: 40%
- inhibition at 50 µM [1, 18]: 40 to 75%
- relative affinity Ki (cAMP)/Ki (analogue), RI Site A [5]: 1.30
- relative affinity Ki (cAMP)/Ki (analogue), RI Site B [5]: 1.0
- times less potent than 8-Cl-cAMP ([10]; leukemic cell lines): 5-20 times
- relative affinity Ki (cAMP)/Ki (analogue), RII Site A [7]: 0.11
- relative affinity Ki (cAMP)/Ki (analogue), RII Site B [7]: 6.8

Structure (SMILES): CCOC(=O)Nc1ncnc2c1ncn2[C@@H]1O[C@@H]2COP(=O)(O)O[C@H]2[C@H]1O [N^6 -ethoxycarbonyl-cAMP]
- inhibition at 50 µM [1, 15]: 32%
- inhibition at 50 µM [1, 16]: 40%
- inhibition at 50 µM [1, 18]: 30 to 70%
